The values below come from article PMC8009478, “Novel Curcumin-Diethyl Fumarate Hybrid as a Dualistic GSK-3β Inhibitor/Nrf2 Inducer for the Treatment of Parkinson’s Disease” (ACS Chemical Neuroscience, 2020).

Data set [1] can be described thus: PAMPA-BBB assay. Particulars: for prediction (penetration in the CNS): from PAMPA-BBB Pe; for Papp at 2.5 h: pig, PAMPA, pH 7.4.
For data set [2], the system named is SH-SY5Y cells. The experiment in a line: Intracellular GSH levels (MCB probe). The format is cell-based, human. The note with it: 5 μM; for increase in GSH levels as compared to control: 24 h; for GSH quantity at different times: after 12 and 24 h of treatment (3–24 h studied). The protocol:
By observing the reduction of ROS levels following a long treatment of the curcumin-DEF hybrids before the treatment with t-BuOOH, we hypothesized that the antioxidant effect might likely result from an increase in levels of GSH. This endogenous antioxidant plays critical roles in protecting cells against oxidative stress damage.[32] Thus, the intracellular GSH levels were analyzed by employing the same experimental conditions used to evaluate the indirect antioxidant effect by fluorescent probe monochlorobimane (MCB). […] For the most promising compounds 4 and 5, the effect on GSH levels at different times (3–24 h) was studied.
Figure 4 Effects of compounds 4–7 and DMF on GSH levels in SH-SY5Y cells. Cells were treated with (A) compounds 4–7 (5 μM) and DMF (5 and 10 μM) for 24 h. (B) Cells were treated with compounds 4 and 5 (5 μM) for different times (3, 6, 12, and 24 h). At the end of the treatment, the GSH levels were evaluated by probe MCB. Results are expressed as mean ± SEM of at least three independent experiments (** p < 0.01 and *** p < 0.001 vs untreated cells at one-way ANOVA with the Dunnett post hoc test).
GSH levels were evaluated by using the fluorescent probe MCB, as previously described.[44]

Data set [3] deals with SH-SY5Y cells. Put plainly: Neuroprotection against 6-OHDA, MTT assay. Particulars: 5 μM for 24 h, then 6-OHDA 100 μM for 2 h. The format is cell-based, human. The protocol: (§1) Figure 6 Effects of 4 and 5 on neurotoxicity induced by OAβ1–42 oligomers and 6-OHDA in SH-SY5Y cells. (A) Cells were incubated with 4 and 5 (5 μM, for 24 h) and then treated with OAβ1–42 (10 μM, for 4 h). (B) Cells were incubated with compounds 4 and 5 (5 μM, for 24 h), then treated with 6-OHDA (100 μM, for 2 h), and then starved in complete medium for 22 h. The neurotoxicity was evaluated by an MTT assay. Data are expressed as percentages of neurotoxicity versus cells treated with Aβ1–42 oligomers or 6-OHDA and reported as mean ± SEM of at least three independent experiments (* p < 0.05 versus cells treated with 6-OHDA at one-way ANOVA with the Dunnett post hoc test).
The neurotoxin 6-OHDA provides an in vitro lesion model by inducing CNS oxidative damage and neuroinflammation suitable for assessing the neuroprotective potential of PD therapeutics.[34] Consistent with these effects, 6-OHDA (100 μM, for 2 h) was employed to induce damage in SH-SY5Y cells previously treated with 4 and 5 (5 μM, for 24 h).
Then, cells were treated with 6-hydroxydopamine (6-OHDA, 100 μM) for 2 h and starved in complete medium for 22 h. The neuroprotective activity was measured by using the MTT assay as previously described.[47] Data are expressed as a percentage of neurotoxicity versus untreated cells.

Data set [4] has as its system SH-SY5Y cells. Put plainly: Neuroprotection against Aβ1–42 oligomers, MTT assay. The format is cell-based, human. Particulars: 5 μM for 24 h, then OAβ1–42 10 μM for 4 h. The protocol:
Intracellular accumulation of soluble Aβ1–42 oligomers is responsible for neurotoxic effects, such as neuronal death, and represents a key event in AD pathogenesis.[33] […] Briefly, SH-SY5Y cells were incubated with 5 μM concentration of the selected analogues for 24 h, followed by OAβ1–42 oligomers treatment (10 μM) for 4 h (Figure 6A).
as §1, with “test). […]” for “test).”
Then, cells were treated with Aβ1–42 oligomers for 4 h. The neuroprotective activity, in terms of an increase in intracellular MTT granules, was measured by an MTT assay, as previously described (see the Supporting Information for experimental details).[46]

In the case of `CCOC(=O)/C=C/C(C(=O)/C=C/c1ccc(OC)cc1)=C(O)\C=C\c1ccc(OC)cc1` [Compound 4, Ethyl (2E,4Z,6E)-5-Hydroxy-7-(4-methoxyphenyl)-4-((E)-3-(4-methoxyphenyl)acryloyl)hepta-2,4,6-trienoate], in data set [1], the “prediction (penetration in the CNS)” value was “CNS + (compounds showing a Pe value superior to 2.26 × 10^–6 cm s^–1 could be regarded as able to permeate the brain compartment and thus classified as (CNS +))”; the Papp at 2.5 h was determined as 2.5 ± 0.3 ×10⁻⁶ cm/s. Further, in data set [2], the “increase in GSH levels as compared to control” value is given as 4 fold and the “GSH quantity at different times” value is given as “significant increase”. In addition, the “protection against 6-OHDA-induced decrease in cell viability” value in data set [3] is listed as “mitigate the 6-OHDA-induced decrease in cell viability”. In addition, in data set [4], the “prevention of Aβ1–42 oligomers-induced cell death” value is “failed to prevent Aβ1–42 oligomers-induced cell death”.

As to `CCOC(=O)/C=C/C(C(=O)/C=C/c1ccc(OC)cc1)=C(O)\C=C\c1ccc(OCc2ccccc2)cc1` [Compound 5, Ethyl (2E,4Z,6E)-7-(4-(Benzyloxy)phenyl)-5-hydroxy-4-((E)-3-(4-methoxyphenyl)acryloyl)hepta-2,4,6-trienoate], in data set [1], the “prediction (penetration in the CNS)” value was “CNS + (compounds showing a Pe value superior to 2.26 × 10^–6 cm s^–1 could be regarded as able to permeate the brain compartment and thus classified as (CNS +))”; the Papp at 2.5 h was 4.8 ± 0.4 ×10⁻⁶ cm/s. Besides, in data set [2], the “increase in GSH levels as compared to control” value was 4 fold and the “GSH quantity at different times” value is given as “significant increase”. Further, the “protection against 6-OHDA-induced decrease in cell viability” value in data set [3] is “mitigate the 6-OHDA-induced decrease in cell viability”. Besides, the “prevention of Aβ1–42 oligomers-induced cell death” value in data set [4] was “failed to prevent Aβ1–42 oligomers-induced cell death”.
